Legend:
Assay type in all cases: in vivo
Alopecurus myosuroides [1] = test: Pre-emergence herbicidal activity, ALOMY; conditions: application pre-emergence, 1000 g/Ha, evaluated after 13 days, scale 0-5
Method: (§1) Seeds of a variety of test species were sown in standard soil in pots. After cultivation for one day (pre-emergence) under controlled conditions in a glasshouse (at 24/16° C., day/night; 14 hours light; 65% humidity), the plants were sprayed with an aqueous spray solution derived from the formulation of the technical active ingredient in acetone/water (50:50) solution containing 0.5% Tween 20 (polyoxyethelyene sorbitan monolaurate, CAS RN 9005-64-5). The test plants were then grown in a glasshouse under controlled conditions (at 24/16° C., day/night; 14 hours light; 65% humidity) and watered twice daily. After 13 days, the test was evaluated (5=total damage to plant; 0=no damage to plant).

Alopecurus myosuroides [2] = test: Post-emergence herbicidal activity, ALOMY; set-up: key: 5=total damage to plant; 0=no damage to plant; conditions: application post-emergence, 1000 g/Ha, evaluated after 13 days, scale 0-5
Method: (§2) Seeds of a variety of test species were sown in standard soil in pots. After 8 days cultivation (post-emergence) under controlled conditions in a glasshouse (at 24/16° C., day/night; 14 hours light; 65% humidity), the plants were sprayed with an aqueous spray solution derived from the formulation of the technical active ingredient in acetone/water (50:50) solution containing 0.5% Tween 20 (polyoxyethelyene sorbitan monolaurate, CAS RN 9005-64-5). The test plants were then grown in a glasshouse under controlled conditions (at 24/16° C., day/night; 14 hours light; 65% humidity) and watered twice daily. After 13 days, the test was evaluated (5=total damage to plant; 0=no damage to plant).

Setaria faberi [3] = test: Pre-emergence herbicidal activity, SETFA; set-up: key: 5=total damage to plant; 0=no damage to plant; conditions: application pre-emergence, 1000 g/Ha, evaluated after 13 days, scale 0-5
Method: as §1

Abutilon theophrasti [4] = test: Pre-emergence herbicidal activity, ABUTH; set-up: key: 5=total damage to plant; 0=no damage to plant; conditions: application pre-emergence, 1000 g/Ha, evaluated after 13 days, scale 0-5
Method: as §1

Zea mays [5] = test: Pre-emergence herbicidal activity, ZEAMX; set-up: key: 5=total damage to plant; 0=no damage to plant; conditions: application pre-emergence, 1000 g/Ha, evaluated after 13 days, scale 0-5
Method: as §1

Abutilon theophrasti [6] = test: Post-emergence herbicidal activity, ABUTH; set-up: key: 5=total damage to plant; 0=no damage to plant; conditions: application post-emergence, 1000 g/Ha, evaluated after 13 days, scale 0-5
Method: as §2

Amaranthus retroflexus [7] = test: Pre-emergence herbicidal activity, AMARE; set-up: key: 5=total damage to plant; 0=no damage to plant; conditions: application pre-emergence, 1000 g/Ha, evaluated after 13 days, scale 0-5
Method: as §1

Zea mays [8] = test: Post-emergence herbicidal activity, ZEAMX; set-up: key: 5=total damage to plant; 0=no damage to plant; conditions: application post-emergence, 1000 g/Ha, evaluated after 13 days, scale 0-5
Method: as §2

Echinochloa crus-galli [9] = test: Pre-emergence herbicidal activity, ECHCG; set-up: key: 5=total damage to plant; 0=no damage to plant; conditions: application pre-emergence, 1000 g/Ha, evaluated after 13 days, scale 0-5
Method: as §1

Echinochloa crus-galli [10] = test: Post-emergence herbicidal activity, ECHCG; set-up: key: 5=total damage to plant; 0=no damage to plant; conditions: application post-emergence, 1000 g/Ha, evaluated after 13 days, scale 0-5
Method: as §2

Setaria faberi [11] = test: Post-emergence herbicidal activity, SETFA; set-up: key: 5=total damage to plant; 0=no damage to plant; conditions: application post-emergence, 1000 g/Ha, evaluated after 13 days, scale 0-5
Method: as §2

Amaranthus retroflexus [12] = test: Post-emergence herbicidal activity, AMARE; set-up: key: 5=total damage to plant; 0=no damage to plant; conditions: application post-emergence, 1000 g/Ha, evaluated after 13 days, scale 0-5
Method: as §2

Row | Structure (SMILES) | ALOMY damage score (Alopecurus myosuroides [1]) | ALOMY damage score (Alopecurus myosuroides [2]) | SETFA damage score (Setaria faberi [3]) | ABUTH damage score (Abutilon theophrasti [4]) | ZEAMX damage score (Zea mays [5]) | ABUTH damage score (Abutilon theophrasti [6]) | AMARE damage score (Amaranthus retroflexus [7]) | ZEAMX damage score (Zea mays [8]) | ECHCG damage score (Echinochloa crus-galli [9]) | ECHCG damage score (Echinochloa crus-galli [10]) | SETFA damage score (Setaria faberi [11]) | AMARE damage score (Amaranthus retroflexus [12])
1 | CON1C(=O)N(c2cc(C(C)(C)C)n(C)n2)C(O)C1C (stereo not drawn) [Compound A3] | 4 | 5 | 4 | 5 | 3 | 5 | 5 | 4 | 4 | 5 | 5 | 5
2 | CON1C(=O)N(c2cc3n(n2)CCC3(C)C)C(O)C1C (stereo not drawn) [Compound A1] | 4 | 4 | 4 | 5 | 3 | 5 | 5 | 5 | 5 | 5 | 5 | 5
3 | CN1CC(O)N(c2nn(C)c(C(C)(C)C)c2C#N)C1=O (stereo not drawn) [Compound A5] | 1 | 3 | 0 | 2 | 0 | 4 | 4 | 2 | 0 | 3 | 3 | 5
4 | COC(C)(C)c1cc(N2C(=O)N(C)CC2O)nn1C (stereo not drawn) [Compound A18] |  |  | 4 | 5 | 2 | 5 | 5 | 2 | 4 | 4 | 5 | 5
5 | CN1CC(O)N(c2cc3n(n2)CCC3(C)C)C1=O (stereo not drawn) [Compound A14] | 4 | 5 | 4 | 5 | 3 | 5 | 5 | 5 | 4 | 5 | 5 | 5
6 | COC(C)(C)c1cc(N2C(=O)N(C)C(C)C2O)nn1C (stereo not drawn) [Compound A20] |  |  | 4 | 5 | 2 | 5 | 5 | 3 | 4 | 5 | 4 | 5
7 | COCC1C(O)N(c2cc(C(C)(C)OC)n(C)n2)C(=O)N1C (stereo not drawn) [Compound A21] |  |  | 4 | 5 | 2 | 5 | 5 | 2 | 4 | 3 | 4 | 5
8 | CC1NC(=O)N(c2cc(C(C)(C)C)n(C)n2)C1O (stereo not drawn) [Compound A17] | 3 | 3 | 3 | 4 | 1 | 4 | 5 | 0 | 4 | 3 | 2 | 4
9 | CON1C(=O)N(c2cc(C(F)(F)F)n(C)n2)C(O)C1C (stereo not drawn) [Compound A4, 4-hydroxy-1-methoxy-5-methyl-3-[1-methyl-5-(trifluoromethyl)pyrazol-3-yl]imidazolidin-2-one] | 4 | 5 | 4 | 5 | 3 | 5 | 5 | 5 | 4 | 5 | 5 | 5
10 | CN1C(=O)N(c2cc(C(F)(F)F)n(C)n2)C(O)C1O (stereo not drawn) [Compound A12, 4,5-dihydroxy-1-methyl-3-[1-methyl-5-(trifluoromethyl)pyrazol-3-yl]imidazolidin-2-one] | 4 | 5 | 4 | 5 | 1 | 5 | 5 | 4 | 4 | 5 | 5 | 5
11 | CCOC1C(O)N(c2cc(C(C)(C)C)n(C)n2)C(=O)N1C (stereo not drawn) [Compound A10] | 4 | 5 | 4 | 5 | 2 | 5 | 5 | 5 | 5 | 5 | 5 | 5
12 | CON1C(=O)N(c2cc(C(C)(C)OC)n(C)n2)C(O)C1C (stereo not drawn) [Compound A19] |  |  | 4 | 5 | 2 | 5 | 5 | 3 | 4 | 5 | 5 | 5
13 | CN1CC(O)N(c2cc(C(F)(F)F)n(C)n2)C1=O (stereo not drawn) [Compound A13] | 4 | 5 | 4 | 5 | 2 | 5 | 5 | 4 | 5 | 5 | 5 | 5
14 | CC1C(O)N(c2cc(C(F)(F)F)n(C)n2)C(=O)N1C (stereo not drawn) [Compound A2, 4-hydroxy-1,5-dimethyl-3-[1-methyl-5-(trifluoromethyl)pyrazol-3-yl]imidazolidin-2-one] | 4 | 5 | 4 | 5 | 4 | 5 | 5 | 4 | 4 | 5 | 5 | 5
15 | CC1C(O)N(c2cc(C(C)(C)C)n(C)n2)C(=O)N1C (stereo not drawn) [Compound A7] | 4 | 4 | 5 | 4 | 2 | 5 | 5 | 4 | 4 | 5 | 5 | 5
16 | CCOC1C(O)N(c2cc(C(F)(F)F)n(C)n2)C(=O)N1C (stereo not drawn) [Compound A8, 5-ethoxy-4-hydroxy-1-methyl-3-[1-methyl-5-(trifluoromethyl)pyrazol-3-yl]imidazolidin-2-one] | 4 | 5 | 4 | 5 | 2 | 5 | 5 | 4 | 5 | 5 | 5 | 5
17 | COCC1C(O)N(c2cc(C(C)(C)C)n(C)n2)C(=O)N1C (stereo not drawn) [Compound A22] | 2 |  | 1 | 5 | 0 | 5 | 5 | 4 | 1 | 5 | 5 | 5
